Where a name gives a salt, the structure may show the parent alone. Read-outs that look alike come from different tables or passages of the source.
How the values were obtained:
[1] = test system: phospho-akt (Thr308) in PC-3 cells; test: Inhibition of phospho-akt (Thr308) in PC-3 cells, MSD phospho-akt 308 ELISA kit; assay type: cell-based; details: 2 hours, no serum, read-out: EC50
Procedure, shortened: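 PC-3 cells were seeded overnight in growth medium with 10% FBS, then exposed to compound serially diluted threefold in serum-free medium for 2 hours. Lysates were captured overnight at 4 degrees on MSD plates and phospho-Akt Thr308 was detected electrochemiluminescently, against DMSO high and 5 μM wortmannin low controls.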

[2] = molecular target: PDK1 (Homo sapiens (Human), UniProt O15530); test: PDK1 kinase assay (coupled PDK1/AKT/FAM-crosstide assay, IMAP fluorescence polarization); assay type: biochemical
Procedure, shortened: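 PDK1 activity is measured indirectly through activation of a PIFtide-fused AKT2 construct that phosphorylates FAM-crosstide (100 nM). The reaction uses 0.75 nM PDK1, 40 μM ATP, 30 min, 25° C, with IMAP polarization detection.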

[3] = Homo sapiens, inhibition of P308 Akt in PC-3 cells, MSD
[4] = inhibition of phospo-PDK1 in vitro
[5] = Homo sapiens, inhibition of P308 Akt in PC-3 cells using MSD

Sequence of PDK1 (O15530 51-359): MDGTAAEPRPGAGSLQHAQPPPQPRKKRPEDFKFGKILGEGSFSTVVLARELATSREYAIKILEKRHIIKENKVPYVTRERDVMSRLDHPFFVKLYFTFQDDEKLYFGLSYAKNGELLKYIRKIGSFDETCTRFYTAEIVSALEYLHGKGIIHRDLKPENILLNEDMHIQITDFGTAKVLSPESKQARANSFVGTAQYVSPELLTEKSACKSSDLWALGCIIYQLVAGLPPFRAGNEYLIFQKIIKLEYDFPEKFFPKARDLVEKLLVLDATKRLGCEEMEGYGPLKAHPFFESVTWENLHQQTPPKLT

EC50 [1, 3] [nM] | IC50 [2, 4] [nM] | EC50 [1, 5] [nM] | IC50 ([2]; inhibition of PDK1 in vitro) [nM] | Structure (SMILES) | other results
1000 to 10000 | < 100 |  |  | Nc1ncnc2ccc(-c3cccc(CNc4ncccc4C(=O)NCc4ccc(F)c(F)c4)c3)cc12 [Example 6.1, 2-(3-(4-aminoquinazolin-6-yl)benzylamino)-N-(3,4-difluorobenzyl)nicotinamide] | 
> 10000 | > 5000 |  |  | C[C@H](NC(=O)c1cccnc1NCc1ccc(-c2ccc3ncc(-n4cccn4)nc3c2)s1)c1ccc(F)c(F)c1 [Example 4.26, (S)-2-(((5-(3-(1H-pyrazol-1-yl)quinoxalin-6-yl)thiophen-2-yl)methyl)amino)-N-(1-(3,4-difluorophenyl)ethyl)nicotinamide] | 
 |  | < 1000 | < 100 | C[C@H](NC(=O)c1nc(C#N)cnc1NCc1ccc(-c2cnc(N)c(N3CCC[C@H](N)C3)n2)cc1)c1ccc(F)c(F)c1 [Example 198] | 
< 1000 | < 100 |  |  | COc1ccnc(NCc2ccc(-c3ccc4ncnc(N)c4c3)s2)c1C(=O)N[C@@H](C)c1ccc(F)cc1 [Ex. 7.6, (S)-2-(((5-(4-aminoquinazolin-6-yl)thiophen-2-yl)methyl)amino)-N-(1-(4-fluoro-phenyl)ethyl)-4-methoxynicotinamide] | 
 |  | 1000 to 10000 | < 100 | C[C@H](NC(=O)c1nc(C#N)cnc1NCc1ccc(-c2cnc(N)c(N3CCC[C@@H](N)C3)n2)cc1)c1ccc(F)c(F)c1 [Example 190, 3-{4-[5-Amino-6-((R)-3-amino-piperidin-1-yl)-pyrazin-2-yl]-benzylamino}-6-cyano-pyrazine-2-carboxylic acid [(S)-1-(3,4-difluoro-phenyl)-ethyl]-amide] | 
< 1000 | < 100 |  |  | C#Cc1cnc(NCc2ccc(-c3ccc4ncnc(N)c4c3)s2)c(C(=O)NCc2ccc(F)c(F)c2)c1 [Ex. 8.10, 2-(((5-(4-aminoquinazolin-6-yl)thiophen-2-yl)methyl)amino)-N-(3,4-difluorobenzyl)-5-ethynylnicotinamide] | 
< 1000 | < 100 |  |  | Nc1ncnc2ccc(-c3ccc(CNc4ncc(F)cc4C(=O)NCc4ccc(F)c(F)c4)s3)cc12 [Ex. 7.3.1] | 
 |  | < 1000 | < 100 | C[C@H](NC(=O)c1cc(C#N)cnc1NCc1ccc(-c2cnc(N)c(CO)n2)cc1)c1ccc(F)cc1 [Example 240, (S)-2-(4-(5-amino-6-(hydroxymethyl)pyrazin-2-yl)benzylamino)-5-cyano-N-(1-(4-fluorophenyl)ethyl)nicotinamide] | 
 |  | < 1000 | < 100 | NCCOc1nc(-c2ccc(CNc3ncc(C(F)(F)F)cc3C(=O)Nc3ccc(F)cc3)cc2)cnc1N [Example 166, 2-{4-[5-Amino-6-(2-amino-ethoxy)-pyrazin-2-yl]-benzylamino}-N-(4-fluoro-phenyl)-5-trifluoromethyl-nicotinamide] | 
 |  | 1000 to 10000 | 1000 to 5000 | C[C@H](NC(=O)c1nc(C#N)cnc1NCc1ccc(-c2cnc3c(c2)c(N)nn3C)cc1)c1ccc(F)c(F)c1 [Example 414, (S)-3-(4-(3-amino-1-methyl-1H-pyrazolo[3,4-b]pyridin-5-yl)benzylamino)-6-cyano-N-(1-(3,4-difluorophenyl)ethyl) pyrazine-2-carboxamide] | 
 |  |  | < 100 | C[C@H](NC(=O)c1cc(C#N)cnc1NCc1ccc(-c2cnc(N)c(C(=O)NCC(O)CO)n2)cc1)c1ccc(F)cc1 (stereo partly drawn) [Example 347, 3-amino-6-(4-((5-cyano-3-((S)-1-(4-fluorophenyl)ethylcarbamoyl)pyridin-2-ylamino)methyl)phenyl)-N-(2,3-dihydroxypropyl) pyrazine-2-carboxamide] | EC50 ([1]; inhibition of P308 Akt in PC-3 cells using MSD): < 1000 nM
 |  | < 1000 | < 100 | CNc1ncc2cc(C#CCNc3ncc(C#N)cc3C(=O)N[C@@H](C)c3ccc(F)cc3)ccc2n1 [Example 255, (S)-5-cyano-N-(1-(4-fluorophenyl)ethyl)-2-(3-(2-(methylamino)quinazolin-6-yl)prop-2-ynylamino)nicotinamide] | 
 |  |  | 1000 to 5000 | Cc1cccc(Cl)c1NC(=O)c1cc(C(F)(F)F)cnc1NCc1ccc(-c2cnc3[nH]nc(N)c3c2)cc1 [Example 438, 2-(4-(3-amino-1H-pyrazolo[3,4-b]pyridin-5-yl)benzylamino)-N-(2-chloro-6-methyl-phenyl)-5-(trifluoro-methyl)nicotinamide] | EC50 ([1]; Homo sapiens, PC-3, 2 h, inhibition of P308 Akt in PC-3 cells using MSD): > 10000 nM
 |  | 1000 to 10000 | < 100 | C[C@H](NC(=O)c1cc(C#N)cnc1NCc1ccc(-c2ccc(N)nc2)cc1F)c1ccc(F)cc1 [Example 128] | 
 |  | < 1000 | < 100 | C[C@H](NC(=O)c1cc(C#N)cnc1NCc1ccc(-c2cnc(N)c(CCCO)n2)cc1)c1ccc(F)cc1 [Example 91, 2-{4-[5-Amino-6-(3-hydroxy-propyl)-pyrazin-2-yl]-benzyl-amino}-5-cyano-N-[(S)-1-(4-fluoro-phenyl)-ethyl]-nicotinamide] | 
 |  | > 10000 | 100 to 1000 | Nc1n[nH]c2ncc(-c3ccc(CNc4ncc(C(F)(F)F)cc4C(=O)NCC4CCOC4)cc3)cc12 (stereo not shown) [Example 268, 2-(4-(3-amino-1H-pyrazolo [3,4-b]pyridin-5-yl)benzylamino)-N-((tetrahydro-furan-3-yl)methyl)-5-(trifluoromethyl) nicotinamide] | 
 |  | 1000 to 10000 | 100 to 1000 | C[C@H](NC(=O)c1cc(C#N)cnc1NCc1ccc(-c2ccc(N)nc2)c(F)c1)c1ccc(F)cc1 [Example 129, (S)-2-(4-(6-aminopyridin-3-yl)-3-fluorobenzylamino)-5-cyano-N-(1-(4-fluorophenyl)ethyl) nicotinamide] | 
 |  | < 1000 | < 100 | COCCCn1cc(-c2ccc(CNc3ncc(C#N)nc3C(=O)N[C@@H](C)c3ccc(F)c(F)c3)cc2)c2c(N)ncnc21 [Example 317, (S)-3-(4-(4-amino-7-(3-methoxypropyl)-7H-pyrrolo[2,3-d]pyrimidin-5-yl)benzylamino)-6-cyano-N-(1-(3,4-difluoro-phenyl)ethyl)pyrazine-2-carboxamide] | 
 |  | < 1000 | < 100 | C[C@H](NC(=O)c1cc(C#N)cnc1N[C@H](C)c1ccc(-c2cnc3[nH]nc(N)c3c2)cc1)c1ccc(F)cc1 [Example 423, 2-{(R)-1-[4-(3-Amino-1H-pyrazolo[3,4-b]pyridin-5-yl)-phenyl]-ethylamino}-5-cyano-N-[(S)-1-(4-fluoro-phenyl)-ethyl]-nicotinamide] | 
> 10000 | > 5000 |  |  | Cn1ccc(Nc2ncnc3ccc(-c4ccc(CNc5ncccc5C(=O)NCc5ccc(F)c(F)c5)s4)cc23)n1 [Example 2.34, N-(3,4-difluorobenzyl)-2-(((5-(4-(1-methyl-1H-pyrazol-3-ylamino)quinazolin-6-yl)thiophen-2-yl)methyl)amino) nicotinamide] | 
 | 1000 to 5000 |  |  | Cc1ncc(CNC(=O)c2cccnc2NCc2ccc(-c3ccc4ncnc(N)c4c3)s2)cc1F [Example 3.67, 2-(((5-(4-aminoquinazolin-6-yl)thiophen-2-yl)methyl)amino)-N-((5-fluoro-6-methylpyridin-3-yl)methyl)nicotinamide (TFA salt)] | EC50 ([1]; Homo sapiens, PC-3, 2 h, inhibition of P308 Akt in PC-3 cells, MSD): > 10000 nM
1000 to 10000 | 100 to 1000 |  |  | CC(C)Oc1cc(CNc2ncccc2C(=O)NCC2CC2)cc(-c2c[nH]c3ncc(C(=O)NC4CC4)cc23)c1 [Example 4.1.11, N-cyclopropyl-3-{3-[({3-[(cyclopropylmethyl)carbamoyl]pyridin-2-yl}amino)methyl]-5-(propan-2-yloxy)phenyl}-1H-pyrrolo[2,3-b] pyridine-5-carboxamide] | 
 |  | 1000 to 10000 | < 100 | C[C@H](NC(=O)c1cc(C#N)cnc1NCc1ccc(-c2n[nH]c3ncnc(N)c23)cc1)c1ccc(F)cc1 [Example 96, 2-[4-(4-Amino-1H-pyrazolo [3,4-d]pyrimidin-3-yl)-benzylamino]-5-cyano-N-[(S)-1-(4-fluoro-phenyl)-ethyl]-nicotinamide] | 
> 10000 | 1000 to 5000 |  |  | C[C@H](NC(=O)c1cnccc1NCc1ccc(-c2ccc3ncnc(N)c3c2)s1)c1ccc(F)c(F)c1 [Example 3.86] | 
< 1000 | < 100 |  |  | C[C@@H](c1ccc(F)c(F)c1)n1cnc2c(C#N)cnc(NCc3ccc(-c4ccc5ncnc(N)c5c4)s3)c2c1=O [Ex. 7.25, (S)-5-(((5-(4-aminoquinazolin-6-yl)thiophen-2-yl)methyl)amino)-3-(1-(3,4-difluorophenyl)ethyl)-4-oxo-3,4-dihydropyrido[4,3-d]pyrimidine-8-carbonitrile] | 
< 1000 | < 100 |  |  | Nc1ncnc2[nH]cc(-c3ccc(CNc4ncccc4C(=O)NCc4ccc(F)c(F)c4)s3)c12 [Example 4.8, 2-(((5-(4-amino-7H-pyrrolo[2,3-d]pyrimidin-5-yl)thiophen-2-yl)methyl)amino)-N-(3,4-difluorobenzyl)nicotinamide] | 
 |  | > 10000 | > 5000 | CNC(=O)c1cc(S(=O)(=O)NCCN)cnc1NCc1ccc(-c2ccc3ncnc(N)c3c2)s1 [Example 344] | 
 |  | 1000 to 10000 | < 100 | C[C@H](NC(=O)c1cc(C#N)cnc1NCc1cnc(-c2cnc3[nH]ncc3c2)s1)c1ccc(F)cc1 [Example 67, 5-Cyano-N-[(S)-1-(4-fluoro-phenyl)-ethyl]-2-{[2-(1H-pyrazolo[3,4-b]pyridin-5-yl)-thiazol-5-ylmethyl]-amino}-nicotinamide] | 

Structure (SMILES) | EC50 [1, 3] [nM] | IC50 [2, 4] [nM] | EC50 [1, 5] [nM] | IC50 ([2]; inhibition of PDK1 in vitro) [nM] | other results
C[C@H](NC(=O)c1nc(C#N)cnc1NCc1ccc(-c2cnc(N)c(CCC3CCCNC3)n2)cc1)c1ccc(F)c(F)c1 (stereo partly shown) [Example 81] |  |  | 1000 to 10000 |  | IC50 [2]: < 100 nM

— patent publication US10030016B2 (Sunesis Pharmaceuticals, Inc., priority 2009, dated 2018)
